What is called solubility is how much of the substance goes into solution per volume.

≈ marks a conversion by molar mass, not a printed value. Calls of active or inactive are those of the source. How the calls were made is not given here. Some results are limits rather than exact numbers.

Drawing on PubChem BioAssay AID624321 (Sanford-Burnham Center for Chemical Genomics, 2012), this text covers solubility for 89 molecules.

The data set relates to aqueous solubility in 1x PBS. Description: aqueous solubility in phosphate-buffered saline, ADME assay, biophysical, set 2 (AID 624321). The note with it: at 100 µM; stronger effect = higher value.
Regarding `COc1ccc(Sc2ccc(NC(=O)c3ccccc3Cl)cc2C#N)cc1`, the solubility is < 0.01 µg/mL (inactive).
For `COc1cc(NC(=O)c2cc(C3CC3)on2)c(OC)cc1Cl` the value was < 0.01 µg/mL (inactive); for `Cc1cc(C)nc(-n2nc(C)c(Sc3ccc(F)cc3)c2N)n1`, 4.8 µg/mL (inactive) (≈ 14.6 µM); for `c1ccc2c(Nc3nnc(-c4ccncc4)s3)cccc2c1`, 2.7 µg/mL (inactive) (≈ 8.87 µM).
Consider `Cc1ccc(NS(=O)(=O)c2ccc3c(c2)CCC(=O)N3)cc1C`, for which the solubility was 24.4 µg/mL (≈ 73.8 µM).
Turning to `Cc1cc(C(=O)CN2C(=O)CCC2=O)c(C)n1Cc1ccccc1`, the solubility was 17.8 µg/mL (≈ 54.9 µM).
Take `O=C1C2CC=CCC2C(=O)N1c1n[nH]c(-c2ccccc2)n1` (centres undefined): the solubility was over 29 µg/mL.
For `O=C(O)c1ccccc1OCc1ccccc1Br`, the solubility is over 30 µg/mL.
Turning to `Cc1ccc(-n2c(N)c(C#N)c(-c3ccccc3)c(C#N)c2=O)cc1`, the solubility was 0.83 µg/mL (inactive) (≈ 2.54 µM).
Take `CC(C)(C)OC(=O)NCCc1nnc(S(=O)(=O)Cc2ccc(Cl)cc2Cl)o1`: the solubility is 5.8 µg/mL (inactive) (≈ 13.3 µM).
With `O=c1[nH]c2c(s1)C(c1cccnc1)C1C3CCC(C3)C1S2` (centres undefined), the solubility is over 31 µg/mL.
For `CCCc1nc2c(=O)n(C)c(=O)nc-2n(C)n1` the value was over 23 µg/mL; for `O=C(O)CCC(NS(=O)(=O)c1ccc(-c2ccccc2)cc1)C(=O)O` (centres undefined), over 36 µg/mL; for `O=C1CCCC2=C1C1(CCCC1)N=C(Nc1nc3ccccc3o1)N2`, 0.13 µg/mL (inactive) (≈ 0.386 µM).
As for `Cc1cc(C)n(-c2nc(NCCCO)c3c4c(sc3n2)CCCC4)n1`, the solubility is 17.1 µg/mL (≈ 47.8 µM).
Regarding `N#Cc1ccccc1CSc1nc2ncc(Br)cc2[nH]1`, the solubility is 0.42 µg/mL (inactive) (≈ 1.22 µM).
In the case of `Oc1cc(O)cc(/C=C/c2ccc(O)c(O)c2)c1` it was 6.5 µg/mL (inactive) (≈ 26.6 µM).
For the molecule `CC(=O)c1ccc(N2CCN(S(=O)(=O)c3ccc4c(c3)CC(=O)N4)CC2)cc1`, the solubility was 3 µg/mL (inactive) (≈ 7.51 µM).
In the case of `COc1ccc(CSc2nc(C)cc(=O)[nH]2)cc1`, the solubility was over 26 µg/mL.
As to `COc1ccc(C2c3c(ncn(CCN4CCOCC4)c3=N)Oc3ccc4ccccc4c32)cc1OC` (centres undefined), the solubility is 35.4 µg/mL (≈ 71 µM).
In the case of `Cc1ccc(S(=O)(=O)n2c(N)nc3ccccc32)cc1` it was 1.8 µg/mL (inactive) (≈ 6.26 µM); in that of `O=C(O)c1cccnc1SCCc1ccccc1`, over 26 µg/mL; in that of `CCc1oc2ccccc2c1C(=O)c1cc(Br)c(O)c(Br)c1`, over 42 µg/mL.
Take `Cc1ccc(N2CCN(S(=O)(=O)N3CCCCC3)CC2)c(C)c1`: the solubility is 1.4 µg/mL (inactive) (≈ 4.15 µM).
In the case of `Cc1cc(-c2nnc3n2CCCCC3)c(C)n1-c1ccccc1`, the solubility was over 30 µg/mL.
On to `O=c1oc2c(O)c(O)cc3c(=O)oc4c(O)c(O)cc1c4c23`, for which the solubility was over 30 µg/mL.
Take `CN(C)c1oc(-c2ccc(OCc3ccc(Cl)cc3)cc2)nc1C#N`: the solubility was 0.03 µg/mL (inactive) (≈ 0.0848 µM).
For the molecule `COc1ccc(CNCc2cccc3ccccc23)cc1`, the solubility is 29.6 µg/mL (≈ 107 µM).
For `CCCC(=O)Nc1cccc(NC(=O)c2ccccc2Br)c1`, the solubility is over 36 µg/mL.
Regarding `COc1ccc(OC)c(S(=O)(=O)Nc2cnc3ccccc3c2)c1`, the solubility is 25.6 µg/mL (≈ 74.3 µM).
Consider `O=C(CCNS(=O)(=O)c1cccc2nsnc12)N1CCN(c2ccccn2)CC1`, for which the solubility is over 43 µg/mL.
For the molecule `CCCN1CNc2c(c(=O)[nH]c(=S)n2CCc2ccc(OC)c(OC)c2)C1`, the solubility was over 39 µg/mL.
On to `NC(=O)C1CCN(c2nc(-c3ccc(Br)cc3)cs2)CC1`, for which the solubility was 0.14 µg/mL (inactive) (≈ 0.382 µM).
In the case of `CCN1CCN(c2nc3ccccc3nc2C(C#N)C(=O)OC2CCCCC2)CC1` (centres undefined) it was 24.3 µg/mL (≈ 59.6 µM); in that of `CCCc1cc(C(=O)N(C2CCCCC2)C2CCCCC2)no1`, 1.5 µg/mL (inactive) (≈ 4.71 µM); in that of `O=C(O)c1ccc(N2C(=O)/C(=C/c3ccc(-c4ccc([N+](=O)[O-])cc4)o3)C=C2c2ccccc2)cc1`, 0.92 µg/mL (inactive) (≈ 1.92 µM).
Regarding `O=C1NCCCc2c1oc1ccc(O)cc21`, the solubility was 16.8 µg/mL (≈ 77.3 µM).
As to `Cc1ccc(S(=O)(=O)NCc2ccc(C(=O)NCCN(Cc3ccccc3)C(C)C)cc2)cc1`, the solubility is 18.6 µg/mL (≈ 38.8 µM).
In the case of `COc1nc(-c2ccccc2)nnc1-c1ccccc1` it was 0.18 µg/mL (inactive) (≈ 0.684 µM); in that of `O=c1[nH]c(SCc2ccc(Cl)cc2)nc2c1CCC2`, 0.62 µg/mL (inactive) (≈ 2.12 µM); in that of `Cc1ccnc(NC(=O)CCCOc2cc(=O)n(C)c3ccccc23)c1`, 8.3 µg/mL (inactive) (≈ 23.6 µM).
For `CCc1nnc(NC(=O)c2ccc(NS(=O)(=O)c3ccccc3)cc2)s1`, the solubility was 1.3 µg/mL (inactive) (≈ 3.35 µM).
As to `C=CCn1c(SCC(=O)c2ccc(O)c(O)c2)nnc1-c1ccccc1OC`, the solubility was 26 µg/mL (≈ 65.4 µM).
Turning to `O=S1(=O)Nc2c(ccc3cccnc23)-c2ccccc21`, the solubility was over 28 µg/mL.
For `Cc1ccc(S(=O)(=O)C(c2ccccc2)c2c(C)noc2C)cc1` (centres undefined) the value was 17.9 µg/mL (≈ 52.4 µM).
For `CCCOc1ccc(-c2nc(OC)c3ccccc3n2)cc1`, the solubility was < 0.01 µg/mL (inactive).
`O=C(COC(=O)C12CC3CC(CC(C3)C1)C2)NCc1ccco1`: the solubility was < 0.01 µg/mL (inactive).
Take `c1ccc(CC2CCN(c3ncnc4sccc34)CC2)cc1`: the solubility is 0.03 µg/mL (inactive) (≈ 0.0969 µM).
In the case of `Cc1ccc(C)c(OCCn2cc(C(=O)O)c3ccccc32)c1`, the solubility was 25.1 µg/mL (≈ 81.1 µM).
As for `C/C=C/Cn1c(SCCCc2ccccc2)nc2c1c(=O)[nH]c(=O)n2C`, the solubility was 0.19 µg/mL (inactive) (≈ 0.513 µM).
For `Cc1cc2c(s1)c1cnn(Cc3ccccc3F)c(=O)c1n2C` the value was 0.08 µg/mL (inactive) (≈ 0.244 µM).
`Cc1ccc(C)c(NS(=O)(=O)c2cc(C(=O)Nc3ccccc3-c3ccccc3)ccc2Cl)c1`: the solubility is 0.43 µg/mL (inactive) (≈ 0.876 µM).
As to `CCCN(CCC)CCNC(=O)C1CCN(Cc2nc(-c3ccc(Cl)cc3)oc2C)CC1`, the solubility is over 46 µg/mL.
Turning to `CCCn1ncc(CN2CCCC(C(=O)c3cccc(OC(C)C)c3)C2)c1C` (centres undefined), the solubility is 29.6 µg/mL (≈ 77.2 µM).
For `Cc1ccccc1N1CCN(c2ncnc3c2cnn3Cc2ccc(Cl)cc2)CC1` the value was 0.01 µg/mL (inactive) (≈ 0.0239 µM); for `Cc1cccc(-n2cnc3cc(C(=O)N4CCCCC4)ccc32)c1`, 26.3 µg/mL (≈ 82.3 µM).
As to `Cn1cnc([N+](=O)[O-])c1Sc1ncnc2nc[nH]c12`, the solubility was over 27 µg/mL.
On to `COc1ccccc1N(/N=C1\Sc2ccccc2C1=O)C(C)=O`, for which the solubility is 3.7 µg/mL (inactive) (≈ 11.3 µM).
Regarding `O=S(=O)(NC1CCCCC1N1CCOCC1)c1ccc(Cl)cc1` (centres undefined), the solubility was over 36 µg/mL.
With `CC[C@H]1CN2CCc3cc(OC)c(OC)cc3[C@@H]2C[C@@H]1C[C@H]1NCCc2cc(OC)c(OC)cc21`, the solubility was over 55 µg/mL.
For `COc1ccc(OC)c(-c2nnc3n2N=C(c2ccc(OC)c(OC)c2)CS3)c1` the value was 26.8 µg/mL (≈ 65 µM); for `O=c1c2ccccc2[se]n1-c1ccccc1`, 7.2 µg/mL (inactive) (≈ 26.3 µM); for `Cn1nnnc1Sc1ncnc2scc(-c3ccccc3)c12`, 2.4 µg/mL (inactive) (≈ 7.35 µM).
Regarding `CC1CCCN(C(C(=O)Nc2ccc3c(c2)OCCO3)c2ccccc2)C1` (centres undefined), the solubility was 5.2 µg/mL (inactive) (≈ 14.2 µM).
Consider `Cc1ccc(C(=O)n2c3ccccc3c3ccccc32)cc1`, for which the solubility was 0.03 µg/mL (inactive) (≈ 0.105 µM).
In the case of `CCOc1ccc(NC(=S)N2CCC(C(O)(c3ccccc3)c3ccccc3)CC2)cc1`, the solubility was 0.92 µg/mL (inactive) (≈ 2.06 µM).
Turning to `CN(C)C1=C(Cl)C(=O)N(c2ccc(Cl)c(Cl)c2)C1=O`, the solubility was < 0.01 µg/mL (inactive).
For `CS(=O)(=O)c1ccc(C(=O)OCC(=O)NC23CC4CC(CC(C4)C2)C3)cc1[N+](=O)[O-]`, the solubility is 4.8 µg/mL (inactive) (≈ 11 µM).
In the case of `CN(C)c1nc(N)nc(CSc2nnnn2-c2cccc3ccccc23)n1` it was 0.65 µg/mL (inactive) (≈ 1.71 µM); in that of `CSc1nc(-c2ccc(C)cc2)nc(C(Cl)Cl)n1`, 0.07 µg/mL (inactive) (≈ 0.233 µM).
In the case of `Cc1nc(SCc2nc3ccccc3[nH]2)c2oc3ccccc3c2n1`, the solubility is 0.15 µg/mL (inactive) (≈ 0.433 µM).
On to `O=C(COc1ccccc1Br)NCCc1nc2ccccc2[nH]1`, for which the solubility was 29.4 µg/mL (≈ 78.6 µM).
Regarding `COc1ccc(N(C(=O)CCl)C(C(=O)NCCc2ccccc2)c2cccs2)cc1Cl` (centres undefined), the solubility was 0.51 µg/mL (inactive) (≈ 1.07 µM).
As to `COc1cccc(-c2nc(-c3ccc(NC(=O)Cc4ccccc4OC)cc3)no2)c1`, the solubility is 0.04 µg/mL (inactive) (≈ 0.0963 µM).
In the case of `O=C(c1ccccn1)N(Cc1cccs1)C1(C(=O)NC2CCCCC2)CCCCC1` it was 7.3 µg/mL (inactive) (≈ 17.2 µM); in that of `CN1CSC(=S)N(C)C1`, over 16 µg/mL.
For the molecule `CCOC(=O)C(C)Oc1cccc2c(=O)n(CC(=O)Nc3ccc4c(c3)OCCO4)ccc12` (centres undefined), the solubility was 0.35 µg/mL (inactive) (≈ 0.774 µM).
For `O=C(CSc1cccc2cccnc12)N1CCCC1` the value was over 27 µg/mL.
For `COc1ccc(C2CC(c3ccccc3)=NN2c2ccc(S(N)(=O)=O)cc2)cc1` (centres undefined) the value was 0.02 µg/mL (inactive) (≈ 0.0491 µM).
Take `COc1ccc(S(=O)(=O)n2nc(OC(=O)c3ccccc3)cc2N)cc1`: the solubility is 1.1 µg/mL (inactive) (≈ 2.95 µM).
In the case of `O=[N+]([O-])c1ccc(CN2CCOCCOCCN(Cc3ccc([N+](=O)[O-])cc3)CCOCC2)cc1` it was 21.7 µg/mL (≈ 44.4 µM); in that of `N#C/C(=C\c1ccc([N+](=O)[O-])o1)c1nc2ccccc2[nH]1`, 0.17 µg/mL (inactive) (≈ 0.607 µM); in that of `c1ccc(-c2nnc(N3CCOCC3)nc2-c2ccccc2)cc1`, 2.1 µg/mL (inactive) (≈ 6.6 µM).
Turning to `CCOc1ccc(-c2nc(-c3ccncc3)no2)cc1OCC`, the solubility was 0.77 µg/mL (inactive) (≈ 2.47 µM).
Consider `CC(C)C(=O)NC(c1ccco1)c1ccc2cccnc2c1O` (centres undefined), for which the solubility is 3.3 µg/mL (inactive) (≈ 10.6 µM).
In the case of `Cc1ccc(NC(=O)CCC(=O)N/N=C/c2ccc([N+](=O)[O-])o2)cc1C` it was 0.43 µg/mL (inactive) (≈ 1.2 µM).
As for `Brc1ccc2c(c1)CN1CCCC1=N2`, the solubility is over 25 µg/mL.
On to `COC(=O)c1ccccc1NC(=O)c1ccc(F)cc1`, for which the solubility was 0.94 µg/mL (inactive) (≈ 3.44 µM).
For `COc1ccc(S(=O)(=O)N2CCN(S(=O)(=O)c3ccc4c(c3)OCCO4)CC2)cc1` the value was 0.26 µg/mL (inactive) (≈ 0.572 µM).
